Laboratory results published in patent US20240299376A1, “METHOD OF TREATING A CONDITION USING A […] EFFECTIVE DOSE OF 1-(1-OXO-1,2-DIHYDROISOQUINOLIN-5-YL)-5-(TRIFLUOROMETHYL)-N-(2-(TRIFLUOROMETHYL)PYRIDIN-4-YL)-1H-PYRAZOLE-4-CARBOXAMIDE” (Janssen Pharmaceutica NV, priority 2021, published 2024).

Legend:
[1] = system: panel of 91 tumor cell lines; experiment: Growth inhibition across various cancer indications; format: cell-based; conditions: more than 18 tumor indications, no ABC-DLBCL lines
Description: The panel represents cancer cell lines from more than 18 different tumor indications, including breast, colon, lung, ovarian, and blood cancers.

primary T cells = experiment: Treg/Teff ratio after CD3/28 stimulation of primary T cells (flow cytometry); format: cell-based, human; conditions: compound added 24 hours after CD3/28 stimulation, for 72 hours
Description: The role of MALT1 in the immunologic activity of T cells was investigated by looking at the proportions of Treg and effector T cells (Teff). These cells are in a dynamic balance and their ratio correlates with the effectiveness of protective immunity. An accumulation of Tregs, resulting in a higher Treg/Teff ratio within tumor tissue, is associated with worse prognosis in cancer. Whiteside T L. What are regulatory T cells (Treg) regulating in cancer and why? Semin Cancer Biol. 2012, 22, 327-34. In vitro, activation of T cells through TCR stimulation increases the Treg/Teff ratio by increasing the Treg population, as defined by CD4^+CD25^hiFOXP3^hi.
After 24 hours of pre-stimulation, the compound was added for 72 hours. Alternatively, the compound was added together with the CD3/28 stimulus for 96 hours. Cells were stained for flow cytometric analysis (BD Facs Verse). After gating on the living singlet population, the proportions of CD8^+ Teff and CD4^+CD25^hiFOXP3^hi Treg subpopulations were analysed.

B-cell lymphoma lines = experiment: Anti-proliferative activity, panel of 10 B-cell lymphoma lines (general cytotoxicity); format: cell-based
Method: Four ABC-DLBCL cell lines with activating mutations in the canonical NFκB pathway were evaluated (OCI-LY3 (CARD11, MYD88 & A20 mutations), TMD8, HBL1, and OCI-LY10 (CD79B & MYD88 mutations)), which are generally sensitive to NF-κB pathway inhibition. None of the GCB-DLBCL cell lines harbor mutations in the NF-κB pathway. The GCB-DLBCL cell lines served as a negative control to exclude compounds with general cytotoxic effects.
At concentrations ≥20 μM general cytotoxicity was observed.

[2] = system: human cytokine IL-10 in serum; experiment: Serum IL-10 (MSD assay) after a single dose in OCI-LY10 tumor-bearing NSG mice; format: in vivo
Method: NF-κB signaling regulates the secretion of multiple cytokines, including interleukin-10 (IL-10). MALT1 inhibition results in a decrease of IL-10 transcription and translation as well as secretion. Levels of the human cytokine IL-10 were measured in the serum of OCI-LY3 or OCI-LY10 ABC-DLBCL tumor bearing mice using a Mesoscale Discovery assay (MSD). 25 μL of mouse serum was transferred to an MSD plate (V-Plex Proinflammation Panel I (human) kit) and incubated together with 25 μL diluent 2 (MSD; R51BB-3) for 2 hours at RT followed by a 2-hour incubation with IL-10 antibody solution. Plates were read on a SECTOR imager. Serum human IL-10 levels were correlated to serum compound concentration.
Serum samples were collected at 2, 12, and 24 hours post dose and tumor samples were collected 24 hours post dose. Human IL-10 was measured in serum samples using a Mesoscale assay.
Serum IL-10 levels are graphed as the mean+/−standard deviation.
For PD, when tumors reached 550-750 mm^3 animals were assigned randomly into the treatment groups and treated as presented in Table 5. Dose volumes were adjusted to individual body weights at 10 mL/kg. For both PD studies, serum was collected at 2 and 12 hours post treatment from the retro-orbital sinus. At 24 hours post treatment, animals were bled via decapitation and tumors were excised, weighed, and divided for bioanalysis and ex vivo PD analysis. Blood was centrifuged at 10,000 rpm and serum divided for bioanalysis and PD analysis.

[3] = system: Rec1 (Ibrutinib sensitive MCL); experiment: Anti-proliferative activity, DLBCL cell line panel; format: cell-based; conditions: Homo sapiens, Rec1, 192 h; antiproliferation after 8 days of treatment
U2932 (A20/TAK1 mut) = experiment: Anti-proliferative activity, DLBCL cell line panel; format: cell-based; conditions: Homo sapiens, U2932, 192 h; antiproliferation after 8 days of treatment
[4] = system: OCI-LY10 human DLBCL xenografts; experiment: Antitumor efficacy in established OCI-LY10 human DLBCL xenografts; format: in vivo, NSG mice; conditions: 3.5 weeks
Method: Tumor volume was calculated using the formula: tumor volume (mm^3)=(Dxd^2/2); where ‘D’ represents the larger diameter, and ‘d’ the smaller diameter of the tumor as determined by caliper measurements. Tumor volume data was graphically represented as the mean tumor volume±SEM.
Percent tumor growth inhibition (TGI) was defined as the difference between mean tumor volumes of the treated and control group, calculated as
where TVc is the mean tumor volume of a given control group and TVt is the mean tumor volume of the treatment group. As defined by National Cancer Institute criteria, ≥60% TGI is considered biologically significant.
Group tumor volumes are graphed as the mean+SEM. Mice were implanted SC on the right flank on Day 0.
OCY-LY10 cells were maintained at 37° C. in a humidified atmosphere (5% CO2, 95% air), in RPMI-1640 medium with GlutaMAX™, supplemented with 10% Fetal Bovine Serum (Heat Inactivated at 57° C.) and 1% Penicillin-Streptomycin. Each mouse received 1×10^6 OCI-LY10 cells in serum-free RPMI-1640 medium with Matrigel in 1:1 ratio in a total volume of 0.2 mL. Cells were implanted SC in the right flank using a 1 mL syringe and a 26-gauge needle. The day of tumor implantation was designated as Day 0.
For study 4, study animals were randomly assigned into treatment groups, when the mean OCI-LY10 tumor volume reached 169 mm^3 (Day 15 post-tumor cell implantation). Treatment was initiated the day after randomization (Day 16). Treatment for the antitumor efficacy study lasted for 24 days until Day 40, when most animals in the Vehicle control group reached ethical tumor volume limits. […] Blood was collected from the retro-orbital sinus and submitted for bioanalytical analysis.

**Q.** For O=C(Nc1ccnc(C(F)(F)F)c1)c1cnn(-c2cccc3c(=O)[nH]ccc23)c1C(F)(F)F [Compound A, 1-(1-oxo-1,2-dihydroisoquinolin-5-yl)-5-(trifluoromethyl)-N-[2-(trifluoromethyl)pyridin-4-yl]-1H-pyrazole-4-carboxamide], which “sensitivity of tumor cell lines (cell viability)” value [1] is on record?
**A.** Its value is “no single cell lines showing sensitivity to Compound A up to 20 μM”.

**Q.** And the “effect on Treg and Teff populations” value (primary T cells)?
**A.** Its value is “did not influence the Treg and Ter populations”.

**Q.** What about the “concentrations at which general cytotoxicity was observed” value (B-cell lymphoma lines) of the same molecule?
**A.** The value was at least 20 µM.

**Q.** And the “effect of adding precipitation inhibitor on exposure and PD” value ([2]; 100 mg/kg plus precipitation inhibitor PVP/VA64, 24 hours)?
**A.** The value was “increased exposures correlating to increased PD shutdown at 24 hours”.

**Q.** And the “inhibition or reduction of serum IL-10” value ([2]; single oral dose 3 mg/kg, 12 hours post dose)?
**A.** The value was “intermediate inhibition or reduction”.

**Q.** And the “inhibition or reduction of serum IL-10” value ([2]; single oral dose 10 mg/kg, 12 hours post dose)?
**A.** The value was “strong inhibition or reduction”.

**Q.** What about the “inhibition or reduction of serum IL-10” value ([2]; single oral dose 30 mg/kg, 12 hours post dose) of the same molecule?
**A.** The value was “completely inhibited or reduced serum IL-10 levels”.

**Q.** What about the “inhibition or reduction of serum IL-10” value ([2]; single oral dose 100 mg/kg, 12 hours post dose) of the same molecule?
**A.** Its value is “completely inhibited or reduced serum IL-10 levels”.

**Q.** And the “inhibition or reduction of serum IL-10” value ([2]; single oral dose, 24 hours post dose)?
**A.** Its value is “rebounded at 24 hours post dose”.

**Q.** What about the IC50 [3] of the same molecule?
**A.** The IC50 was 1170 nM.

**Q.** What about the IC50 (U2932 (A20/TAK1 mut)) of the same molecule?
**A.** The IC50 was 3900 nM.

**Q.** What about the TGI ([4]; 3 mg/kg BID PO, not statistically significant) of the same molecule?
**A.** Its TGI is 11%.

**Q.** And the TGI ([4]; 10 mg/kg BID PO)?
**A.** Its TGI is 41%.

**Q.** What about the TGI ([4]; 30 mg/kg BID PO) of the same molecule?
**A.** Its TGI is 54%.

**Q.** And the TGI ([4]; 100 mg/kg BID PO)?
**A.** Its TGI is 62%.
